Measurements from article PMC3735939, “The low levels of eicosapentaenoic acid in rat brain phospholipids are maintained via multiple redundant mechanisms” (Journal of Lipid Research, 2013).

Tests used:
[1] = cited from earlier work
[2] = In vivo kinetics of FA incorporation and turnover in brain phospholipids (intravenous radiotracer infusion, kinetic model); parameters: species or system rat
Protocol: Twenty-four hours postsurgery, a second catheter (iv catheter 24 gauge/0.75 inch, Angiocath™; Becton Dickinson) was implanted into the tail vein where rats received either vehicle or 10 mg/kg of MEP. […] The radiotracers were infused for 5 min via the tail vein catheter at a rate of 0.223(1 + e^−19.2t) ml/min (t is infusion time in minutes) ([37]) which achieves a steady-state plasma radioactivity within 1 min ([18], [38]). […] During the 5 min infusion, blood samples were collected from the jugular vein at approximately 0, 0.25, 0.5, 0.75, 1.5, 3, 4, and 5 min while the unanesthetized rat was mobile in the infusion box with food and water. […] After 5 min, the rats were rapidly euthanized by head-focused high-energy microwave irradiation (13.5 kW for 1.6 s; Cober Electronics Inc., Stratford, CT). The radiotracer infusions continued until rats were euthanized. The brain was excised and cut sagittally. Both hemispheres were stored at −80°C for radioactive and biochemical analyses. Plasma was isolated from whole blood via microcentrifugation at 6,200 rpm (2,000 g) for 5 min and stored at −80°C.
The model for in vivo kinetics of brain FAs in rats has been previously described ([17], [18], [21], [23], [25], [37], [41]).
Because the infusion is 5 min, contributions of FA from de novo synthesis and esterified plasma FA are negligible ([18], [20], [23], [41]); thus only contributions from plasma unesterified FAs and acyl-CoA pools were considered in the calculation of λpalmitate, DHA, or EPA .

| Compound | FFA rate of turnover ([2]; ChoGpl, MEP) [%/day] | JFA net incorporation rate from brain acyl-CoA ([2]; ChoGpl, MEP) [nmol/g/day] | Jin net incorporation rate from plasma unesterified FA ([2]; ChoGpl, MEP) [nmol/g/day] | FFA rate of turnover ([2]; ChoGpl, Vehicle) [%/day] | JFA net incorporation rate from brain acyl-CoA ([2]; ChoGpl, Vehicle) [nmol/g/day] | Jin net incorporation rate from plasma unesterified FA ([2]; ChoGpl, Vehicle) [nmol/g/day] | FFA rate of turnover ([2]; EtnGpl, MEP) [%/day] | JFA net incorporation rate from brain acyl-CoA ([2]; EtnGpl, MEP) [nmol/g/day] | Jin net incorporation rate from plasma unesterified FA ([2]; EtnGpl, MEP) [nmol/g/day] | FFA rate of turnover ([2]; EtnGpl, Vehicle) [%/day] | JFA net incorporation rate from brain acyl-CoA ([2]; EtnGpl, Vehicle) [nmol/g/day] | Jin net incorporation rate from plasma unesterified FA ([2]; EtnGpl, Vehicle) [nmol/g/day] | FFA rate of turnover ([2]; Total PL, MEP) [%/day] | JFA net incorporation rate from brain acyl-CoA ([2]; Total PL, MEP) [nmol/g/day] | Jin net incorporation rate from plasma unesterified FA ([2]; Total PL, MEP) [nmol/g/day] | FFA rate of turnover ([2]; Total PL, Vehicle) [%/day] | JFA net incorporation rate from brain acyl-CoA ([2]; Total PL, Vehicle) [nmol/g/day] | Jin net incorporation rate from plasma unesterified FA ([2]; Total PL, Vehicle) [nmol/g/day] | also measured |
| --- | --- | --- | --- | --- | --- | --- | --- | --- | --- | --- | --- | --- | --- | --- | --- | --- | --- | --- | --- |
| CCCCC/C=C\C/C=C\C/C=C\C/C=C\CCCC(=O)O [ARA, arachidonic acid] |  |  |  |  |  |  |  |  |  |  |  |  |  |  |  |  |  |  | rate of loss from brain phospholipids [1]: 2 % per day |
| CC/C=C\C/C=C\C/C=C\C/C=C\C/C=C\C/C=C\CCC(=O)SCCNC(=O)CCNC(=O)[C@H](O)C(C)(C)COP(=O)(O)OP(=O)(O)OC[C@H]1O[C@@H](n2cnc3c(N)ncnc32)[C@H](O)[C@@H]1OP(=O)(O)O [DHA-CoA] |  |  |  |  |  |  |  |  |  |  |  |  |  |  |  |  |  |  | t1/2 half-life ([2]; Total PL, Vehicle): about 1 day; JFA into brain total phospholipids, fold higher than EPA-CoA ([2]; vehicle injection): 154 fold |
| CC/C=C\C/C=C\C/C=C\C/C=C\C/C=C\C/C=C\CCC(=O)O [EPA→DHA] | 0.070 ± 0.01 | 0.98 ± 0.14 | 0.23 ± 0.02 | 0.30 ± 0.035 | 3.8 ± 0.54 | 0.46 ± 0.089 | 0.054 ± 0.017 | 3.1 ± 0.81 | 0.71 ± 0.1 | 0.13 ± 0.023 | 7.6 ± 1.5 | 0.92 ± 0.22 | 0.022 ± 0.0035 | 1.9 ± 0.3 | 0.45 ± 0.044 | 0.091 ± 0.0089 | 7.9 ± 0.97 | 1.0 ± 0.19 |  |
| CC/C=C\C/C=C\C/C=C\C/C=C\C/C=C\CCCCCC(=O)O [EPA→n-3 DPA] | 178 ± 41 | 6.2 ± 0.91 | 1.4 ± 0.12 | 192 ± 25 | 6.5 ± 0.92 | 0.79 ± 0.15 | 153 ± 44 | 13 ± 3.5 | 3.0 ± 0.43 | 147 ± 30 | 12 ± 2.5 | 1.5 ± 0.36 | 149 ± 35 | 21 ± 3.3 | 5.0 ± 0.49 | 123 ± 34 | 18 ± 2.2 | 2.2 ± 0.44 | FFA rate of turnover ([2]; PtdIns, MEP): 260 ± 113 %/day; JFA net incorporation rate from brain acyl-CoA ([2]; PtdIns, MEP): 1.6 ± 0.77 nmol/g/day; Jin net incorporation rate from plasma unesterified FA ([2]; PtdIns, MEP): 0.39 ± 0.22 nmol/g/day; FFA rate of turnover ([2]; PtdIns, Vehicle): 336 ± 62 %/day; JFA net incorporation rate from brain acyl-CoA ([2]; PtdIns, Vehicle): 2.3 ± 0.1 nmol/g/day; Jin net incorporation rate from plasma unesterified FA ([2]; PtdIns, Vehicle): 0.27 ± 0.045 nmol/g/day; FFA rate of turnover ([2]; PtdSer, MEP): 20 ± 3.6 %/day; JFA net incorporation rate from brain acyl-CoA ([2]; PtdSer, MEP): 1.1 ± 0.11 nmol/g/day; Jin net incorporation rate from plasma unesterified FA ([2]; PtdSer, MEP): 0.25 ± 0.05 nmol/g/day; FFA rate of turnover ([2]; PtdSer, Vehicle): 31 ± 11 %/day; JFA net incorporation rate from brain acyl-CoA ([2]; PtdSer, Vehicle): 1.8 ± 0.45 nmol/g/day; Jin net incorporation rate from plasma unesterified FA ([2]; PtdSer, Vehicle): 0.21 ± 0.068 nmol/g/day |
